Measurements published in paper PMC4301837, “Aldosterone synthase inhibition: cardiorenal protection in animal disease models and translation of hormonal effects to human subjects” (Journal of Translational Medicine, 2014).
Like-named read-outs stand apart in the source and are kept apart here.

Key:
[1] = in vivo; conditions: male, Sprague-Dawley, rat, plasma, po
[2] = molecular target: recombinant human 11β-hydroxylase (CYP11B1) (Homo sapiens, UniProt P15538); conditions: Lineweaver–Burk plots; at higher concentrations
recombinant human 11β-hydroxylase (CYP11B1), sequence (P15538 25-503): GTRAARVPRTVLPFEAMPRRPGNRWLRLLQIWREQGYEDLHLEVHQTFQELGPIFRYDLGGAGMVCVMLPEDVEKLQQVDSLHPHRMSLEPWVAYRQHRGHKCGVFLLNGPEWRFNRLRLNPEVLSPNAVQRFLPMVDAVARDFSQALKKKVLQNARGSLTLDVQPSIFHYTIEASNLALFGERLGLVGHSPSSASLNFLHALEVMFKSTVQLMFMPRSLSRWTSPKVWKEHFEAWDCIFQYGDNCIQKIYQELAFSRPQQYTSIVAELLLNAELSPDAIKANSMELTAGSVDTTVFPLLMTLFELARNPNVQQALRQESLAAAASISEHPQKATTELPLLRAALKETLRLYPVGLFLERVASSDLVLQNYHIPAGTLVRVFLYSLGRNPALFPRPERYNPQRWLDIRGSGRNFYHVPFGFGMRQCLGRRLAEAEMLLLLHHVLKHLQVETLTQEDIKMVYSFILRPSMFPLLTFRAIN

[3] = system: Ang-II-stimulated aldosterone synthesis; conditions: rat, Ang II stimulation
[4] = system: dTG rats overexpressing human renin and angiotensinogen; format: in vivo; conditions: dTG rats, LCI699 3–100 mg/kg/day
[5] = system: Ang-II-stimulated aldosterone synthesis; test: animal or person; conditions: Rattus norvegicus, po, read-out: ED50 for inhibiting Ang-II-stimulated aldosterone response
[6] = system: ACTH-stimulated plasma aldosterone and cortisol
[7] = system: ACTH-stimulated aldosterone and corticosterone synthesis; conditions: rat, ACTH stimulation
[8] = system: patients with primary aldosteronism; conditions: 14 patients, 0.5 mg and 1 mg twice daily, 4 weeks; cited from earlier work
[9] = system: healthy male volunteers
[10] = system: patients with essential hypertension; conditions: cited from earlier work
[11] = molecular target: aldosterone synthase (CYP11B2), rat adrenal homogenate (Rattus norvegicus, UniProt P30099); test: biochemical
aldosterone synthase (CYP11B2), rat adrenal homogenate, sequence (P30099 35-510): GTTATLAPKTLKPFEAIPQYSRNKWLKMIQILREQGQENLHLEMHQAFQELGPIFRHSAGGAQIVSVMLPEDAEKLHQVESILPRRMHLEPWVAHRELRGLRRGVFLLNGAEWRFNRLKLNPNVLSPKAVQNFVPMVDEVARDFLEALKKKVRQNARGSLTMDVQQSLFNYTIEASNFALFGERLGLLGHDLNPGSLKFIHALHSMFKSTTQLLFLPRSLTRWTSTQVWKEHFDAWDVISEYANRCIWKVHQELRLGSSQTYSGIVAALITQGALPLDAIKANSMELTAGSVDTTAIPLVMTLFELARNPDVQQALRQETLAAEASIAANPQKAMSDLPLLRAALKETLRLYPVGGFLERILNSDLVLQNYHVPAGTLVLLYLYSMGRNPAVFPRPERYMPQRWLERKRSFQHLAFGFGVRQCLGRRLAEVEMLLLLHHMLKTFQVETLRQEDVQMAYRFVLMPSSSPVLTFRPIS

[12] = molecular target: 11β-hydroxylase (CYP11B1), rat adrenal homogenate (Rattus norvegicus, UniProt P15393); test: biochemical
11β-hydroxylase (CYP11B1), rat adrenal homogenate, sequence (P15393 25-499): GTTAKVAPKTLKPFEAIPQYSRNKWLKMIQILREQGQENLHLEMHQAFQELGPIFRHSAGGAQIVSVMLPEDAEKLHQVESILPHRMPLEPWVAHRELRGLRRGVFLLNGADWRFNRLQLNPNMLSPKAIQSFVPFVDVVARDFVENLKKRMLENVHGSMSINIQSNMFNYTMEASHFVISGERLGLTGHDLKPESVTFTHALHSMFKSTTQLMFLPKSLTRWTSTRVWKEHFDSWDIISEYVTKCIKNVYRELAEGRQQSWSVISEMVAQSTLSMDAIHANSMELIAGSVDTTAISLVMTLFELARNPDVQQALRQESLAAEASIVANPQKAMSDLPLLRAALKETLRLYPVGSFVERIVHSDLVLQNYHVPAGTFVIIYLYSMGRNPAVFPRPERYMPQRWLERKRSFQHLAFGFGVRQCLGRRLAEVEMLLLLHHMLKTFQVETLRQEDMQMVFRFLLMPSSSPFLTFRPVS

[13] = system: dTG rats with pre-established cardiorenal disease; test: Survival study in older, enalapril-pre-treated dTG rats with established cardiorenal disease; format: in vivo, rat; conditions: older dTG rats
[14] = molecular target: recombinant rat aldosterone synthase (CYP11B2) (Rattus norvegicus, UniProt P30099); test: biochemical
recombinant rat aldosterone synthase (CYP11B2), sequence (P30099 35-510): as the sequence (P30099 35-510) above

[15] = system: patients with Cushing’s disease; conditions: 12 patients, 2–50 mg twice daily, cited from earlier work
[16] = system: dTG rats overexpressing human renin and angiotensinogen; test: Survival study in young dTG rats; format: in vivo, rat
[17] = in vitro; conditions: rat, plasma
[18] = molecular target: aldosterone synthase (CYP11B2), monkey adrenal homogenate (Macaca fascicularis, UniProt A0A2K5UPL9); test: biochemical
aldosterone synthase (CYP11B2), monkey adrenal homogenate, sequence (A0A2K5UPL9 1-503): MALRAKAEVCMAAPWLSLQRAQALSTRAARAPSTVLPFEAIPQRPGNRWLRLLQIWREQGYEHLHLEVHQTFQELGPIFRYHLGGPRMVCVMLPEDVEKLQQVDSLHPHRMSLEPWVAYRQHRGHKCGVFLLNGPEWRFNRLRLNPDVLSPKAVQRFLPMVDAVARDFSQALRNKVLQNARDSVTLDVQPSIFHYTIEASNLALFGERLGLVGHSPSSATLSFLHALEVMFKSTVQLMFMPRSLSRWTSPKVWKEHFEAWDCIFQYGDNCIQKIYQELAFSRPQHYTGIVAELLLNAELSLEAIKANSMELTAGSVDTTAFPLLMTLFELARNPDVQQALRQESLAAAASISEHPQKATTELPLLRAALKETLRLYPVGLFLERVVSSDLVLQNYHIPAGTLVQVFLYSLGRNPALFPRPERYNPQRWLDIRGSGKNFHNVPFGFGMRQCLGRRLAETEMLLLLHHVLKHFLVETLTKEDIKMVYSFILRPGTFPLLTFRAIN

[19] = system: human CYP11B2; set-up: method as in PMID 24899257; conditions: recombinant hamster fibroblasts expressing human CYP11B1 and CYP11B2; read-out: IC50, inhibition of aldosterone synthesis; cited from earlier work
[20] = rat, over the tested dose range
[21] = in vivo; conditions: male, cynomolgus monkey, plasma, po
[22] = dogs, ref D. Rigel, personal communication, cited from earlier work
[23] = system: ACTH-stimulated cortisol; conditions: rhesus monkeys, cited from earlier work
[24] = monkey, 15–150 μg/kg
[25] = system: ACTH-stimulated plasma aldosterone and cortisol; test: animal or person; conditions: Macaca fascicularis
[26] = system: ACTH-stimulated aldosterone, cortisol and precursors; test: Human ACTH (cortisol) stimulation test, multiple-dose phase; format: in vivo
[27] = human, 0.5–3 mg once daily oral
[28] = clinical; conditions: male, human, plasma; for half-life: t½
[29] = in vitro; conditions: human, plasma
[30] = approximately 2 h after oral dosing
[31] = 524 patients, 0.25 to 1 mg, 8 weeks
[32] = oral, single-dose phase, doses up to 200 mg

N#Cc1ccc([C@H]2CCc3cncn32)c(F)c1 [LCI699]
half-life [1]: 2 to 5 h | mode of inhibition of 11β-hydroxylase [2]: reversible competitive inhibitor | dose above which inhibition of stimulated plasma aldosterone shows an apparent plateau ([3]; oral): above 1 mg/kg | Maximal reduction in plasma aldosterone from baseline [3, 30]: 80% | effect on urinary corticosterone excretion [4]: reduced | effect on LV fractional shortening ([4]; eplerenone 30 mg/kg): dose-dependently increased | effect on myocardial cell size ([4]; eplerenone 30 mg/kg): normalized | effect on BUN levels ([4]; eplerenone 30 mg/kg/day): dose-dependently normalized | effect on mean arterial pressure ([4]; eplerenone 30 mg/kg/day): neither LCI699 nor eplerenone normalized arterial pressure | effect on serum potassium ([4]; eplerenone 30 mg/kg/day): corrected serum potassium in a dose-dependent manner | effect on urinary albumin excretion ([4]; eplerenone 30 mg/kg/day): dose-dependently normalized | effect on urinary aldosterone excretion ([4]; eplerenone 30 mg/kg/day): reduced | effect on urine output ([4]; eplerenone 30 mg/kg/day): dose-dependently normalized | effect on LV weight ([4]; eplerenone 30 mg/kg, data not shown): reduced | effect on water intake ([4]; data not shown): dose-dependently normalized | ED50 [5]: 0.6 mg/kg | maximal inhibition of aldosterone production at the upper dose ([6]; Ang-II- and ACTH-stimulation models in rats and monkeys): 80–90% | decrease in ACTH-stimulated plasma aldosterone response compared with vehicle control ([6]; monkey, 150 μg/kg oral, 3 h prior to ACTH): ~90% | inhibition of ACTH-stimulated cortisol synthesis ([6]; monkey, 5–150 μg/kg oral): No significant inhibition | recovery of plasma aldosterone levels ([6]; monkey, 5–150 μg/kg oral): returned to baseline 24 h after dosing | dose above which inhibition of stimulated plasma aldosterone shows an apparent plateau ([7]; oral): > 10 mg/kg | Maximal reduction in plasma aldosterone from baseline [7, 30]: 80% | effect on plasma and urinary aldosterone levels [8]: effectively reduced | mean decrease in ambulatory systolic blood pressure [8]: 4 mmHg | plateau of maximal inhibition of plasma aldosterone ([9]; at the 10 mg single dose, no further reduction up to 200 mg): approximately 80% | increase in 11-deoxycortisol ([9]; single dose 100 mg): 942% | increase in 11-deoxycortisol ([9]; single dose 200 mg): 584% | decrease in plasma cortisol ([9]; single dose 200 mg, 24 h post-dose, P = 0.029 vs placebo): 19% | effect on plasma cortisol ([9]; single doses 3–100 mg): did not significantly alter | reductions in 24-h urinary cortisol ([9]; single doses of 30, 100 or 200 mg): 34–42% | hypertensive patients with attenuated ACTH-stimulated cortisol response ([10]; 1 mg once daily): approximately 20% | placebo-corrected reduction in ambulatory diastolic blood pressure [10, 31]: 3–6 mmHg | placebo-corrected reduction in ambulatory systolic blood pressure [10, 31]: 6–9 mmHg | subjects with suppressed ACTH-stimulated cortisol release ([10]; total daily dose of 1 mg): approximately 20% | IC50 [11]: 802 nM | IC50 [12]: 3050 nM | prolongation of median survival ([13]; 30 mg/kg/day in drinking water from 24 weeks of age, P = 0.07): 23 weeks | treated rats that died suddenly ([13]; LCI699 30 mg/kg/day, n = 7): two of the seven | IC50 [14]: 160 ± 9 nM | patients with urinary free cortisol below upper limit of normal ([15]; 70 days): 11 patients | tolerability [15]: well tolerated | doses at which survival was significantly prolonged ([16]; young dTG rats without established cardiorenal disease, P < 0.01): ≥ 10 mg/kg/day | maximum median survival time ([16]; young dTG rats, dose–median survival curves): 9.5 weeks | fraction unbound [17]: 0.641 | IC50 [18]: 12 ± 1 nM | IC50 [19]: […] | dose proportionality of pharmacokinetics [20]: dose-proportional | Tmax [21]: 0.9 to 3.5 h | half-life [21]: 1 to 2 h | oral bioavailability ([22]; 1 mg/kg oral dose): 96% | half-life [22]: 0.6 to 3.6 h | effect on ACTH-stimulated cortisol ([23]; 3 mg/kg i.v.): reduced ACTH-stimulated cortisol | effect on ACTH-stimulated cortisol ([23]; i.v. 0.003–1 mg/kg): no effect | dose proportionality of pharmacokinetics [24]: dose-proportional | ED50 ([25]; po, read-out: ED50 for inhibition of ACTH-stimulated plasma aldosterone): 0.013 mg/kg | EC50 ([25]; read-out: EC50 for inhibition of ACTH-stimulated plasma aldosterone): < 1 nM | peak reduction of ACTH-stimulated cortisol levels from baseline ([26]; LCI699 0.5 mg, Day 6): 1.8% | effect on ACTH-stimulated 11-DOC levels ([26]; LCI699 0.5 mg, eplerenone 100 mg): no significant effect | maximal increase in ACTH-stimulated 11-DOC from baseline ([26]; LCI699 1 mg, Day 6): 95% | peak reduction of ACTH-stimulated cortisol levels from baseline ([26]; LCI699 1 mg, Day 6): 11% | effect on ACTH-stimulated cortisol response ([26]; LCI699 1 mg, Day 13): attenuation of the ACTH-stimulated cortisol response | maximal increase in ACTH-stimulated 11-DOC from baseline ([26]; LCI699 3 mg, Day 6): 407% | peak increase in ACTH-stimulated 11-deoxycortisol from baseline ([26]; LCI699 3 mg, Day 6): 82% | peak reduction of ACTH-stimulated cortisol levels from baseline ([26]; LCI699 3 mg, Day 6): 22% | increase in ACTH-stimulated 11-DOC levels ([26]; LCI699 3 mg, Day 13): 168% | peak increase in ACTH-stimulated 11-deoxycortisol from baseline ([26]; LCI699 3 mg, Day 13): 114% | time to complete reversal of cortisol suppression after discontinuing ([26]; LCI699 10 mg): 4 to 9 days | effect on ACTH-stimulated cortisol ([26]; LCI699 10 mg, Days 6 and 10): further suppressed | peak inhibition of ACTH-stimulated aldosterone levels from baseline (Day −2) ([26]; LCI699 0.5–3 mg, Day 6): 41–64% | effect on cortisol precursors (ACTH-stimulated) ([26]; eplerenone 100 mg and lower doses of LCI699 (0.5, 1 mg), Day 6 or Day 13): no significant effect | Tmax [27]: 1.00 to 1.25 h | Tmax [28, 32]: ~1 h | half-life ([28]; oral, after both single and multiple doses): ~4 h | half-life [28, 32]: ~4 h | Tmax ([28]; po, 0.5–3 mg once daily oral): ~1 h | fraction unbound [29]: 0.734
